In general, EC50 refers to the concentration giving half of the maximal effect.

Each structure is given as a SMILES string. Read-outs that look alike come from different tables or passages of the source.

The assay concerns HBV rcDNA. Kind of assay: HepDE19 assay with bDNA quantitation of HBV rcDNA. The format is cell-based, hepatitis B virus. Put shortly: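 HepDE19 cells (50,000/well) switched to Tet-free medium, then treated 7 days at 37° C with compounds from 25 μM (½-log, 8-point, duplicate; 0.5% DMSO). rcDNA quantified by bDNA with HBV probes; EC50/EC90 by 4-parameter fit. CC50 from CTG ATP on 5,000 cells/well after 4 days.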

The mark [1] stands for this setting: Hepatitis B virus, HepDE19, 168 h, HepDE19 cells, Tet-free medium, 7 day-incubation, rcDNA measured by Quantigene 2.0 bDNA assay, top concentration 25 μM; read-out: DE-19 bDNA EC50.
Setting [2] is: HepDE19 cells, Tet-free medium, 7 day-incubation, rcDNA measured by Quantigene 2.0 bDNA assay, top concentration 25 μM; read-out: DE-19 bDNA EC50.
Where [3] appears, read: read-out: DE-19 bDNA EC50; HepDE19 cells, Tet-free medium, 7 day-incubation, rcDNA measured by Quantigene 2.0 bDNA assay, top concentration 25 μM.

Take `Cn1cnc(COC(=O)NC2CCc3c2cn(C)c3C(=O)Nc2ccnc(C(F)F)c2)n1` (single isomer, unassigned) [Compound 81, (1-methyl-1H-1,2,4-triazol-3-yl)methyl (1-((2-(difluoromethyl)pyridin-4-yl)carbamoyl)-2-methyl-2,4,5,6-tetrahydrocyclopenta[c]pyrrol-4-yl)carbamate]: the EC50 under setting [1] was found to be 600 nM.

As for `Cc1c2c(c(C(=O)Nc3ccc(F)c(Cl)c3)n1C)CCC2NC(=O)OCc1ncn(C)n1` (single isomer, unassigned) [Compound 82, (1-Methyl-1H-1,2,4-triazol-3-yl)methyl (1-((3-chloro-4-fluorophenyl)carbamoyl)-2,3-dimethyl-2,4,5,6-tetrahydrocyclopenta[c]pyrrol-4-yl)carbamate], the EC50 under setting [2] was 110 nM.

Turning to `Cc1c2c(c(C(=O)Nc3ccc(F)c(Cl)c3)n1C)CCC2NC(=O)OCc1ncn(C)n1` (single isomer, unassigned) [Compound 83, (1-Methyl-1H-1,2,4-triazol-3-yl)methyl (1-((3-chloro-4-fluorophenyl)carbamoyl)-2,3-dimethyl-2,4,5,6-tetrahydrocyclopenta[c]pyrrol-4-yl)carbamate], the EC50 under setting [2] was found to be 3300 nM.

For the molecule `Cn1cnc(CNC(=O)NC2CCCc3c2cn(C)c3C(=O)Nc2ccc(F)c(Cl)c2)n1` (single isomer, unassigned) [Compound 84, N-(3-Chloro-4-fluorophenyl)-2-methyl-4-(3-((1-methyl-1H-1,2,4-triazol-3-yl)methyl)ureido)-4,5,6,7-tetrahydro-2H-isoindole-1-carboxamide], under setting [1], the EC50 came out at 340 nM.

Consider `COC(=O)NC1CCCCc2c1cn(C)c2C(=O)Nc1ccc(F)c(Cl)c1` (single isomer, unassigned) [Compound 85, Methyl (1-((3-chloro-4-fluorophenyl)carbamoyl)-2-methyl-2,4,5,6,7,8-hexahydrocyclohepta[c]pyrrol-4-yl)carbamate], for which, under setting [3], the EC50 was determined as 1500 nM.

Consider `Cn1cnc(COC(=O)NC2CCCCc3c2cn(C)c3C(=O)Nc2ccc(F)c(Cl)c2)n1` (single isomer, unassigned) [Compound 86, (1-Methyl-1H-1,2,4-triazol-3-yl)methyl (1-((3-chloro-4-fluorophenyl)carbamoyl)-2-methyl-2,4,5,6,7,8-hexahydrocyclohepta[c]pyrrol-4-yl)carbamate], for which the EC50 under setting [2] worked out at 160 nM.

In the case of `Cn1cc2c(c1C(=O)Nc1ccc(F)c(Cl)c1)CCCC2NC(=O)OCc1nc[nH]n1` (single isomer, unassigned) [Compound 88, (1H-1,2,4-Triazol-3-yl)methyl (1-((3-chloro-4-fluorophenyl)carbamoyl)-2-methyl-4,5,6,7-tetrahydro-2H-isoindol-4-yl)carbamate], the EC50 under setting [1] is 510 nM.

As to `Cn1cnc(COC(=O)NC2CCCCc3c2cn(C)c3C(=O)Nc2ccc(F)c(Cl)c2)n1` (single isomer, unassigned) [Compound 89, (1-Methyl-1H-1,2,4-triazol-3-yl)methyl (1-((3-chloro-4-fluorophenyl)carbamoyl)-2-methyl-2,4,5,6,7,8-hexahydrocyclohepta[c]pyrrol-4-yl)carbamate], the EC50 under setting [2] is 2900 nM.

As for `Cn1cnc(COC(=O)NC2CCc3c2c(C2CC2)n(C)c3C(=O)Nc2ccc(F)c(Cl)c2)n1` (single isomer, unassigned) [Compound 90, (1-Methyl-1H-1,2,4-triazol-3-yl)methyl (1-((3-chloro-4-fluorophenyl)carbamoyl)-3-cyclopropyl-2-methyl-2,4,5,6-tetrahydrocyclopenta[c]pyrrol-4-yl)carbamate], under setting [2], the EC50 is 420 nM.

Turning to `Cn1cnc(COC(=O)NC2CCc3c2c(C2CC2)n(C)c3C(=O)Nc2ccc(F)c(Cl)c2)n1` (single isomer, unassigned) [Compound 91, (1-Methyl-1H-1,2,4-triazol-3-yl)methyl (1-((3-chloro-4-fluorophenyl)carbamoyl)-3-cyclopropyl-2-methyl-2,4,5,6-tetrahydrocyclopenta[c]pyrrol-4-yl)carbamate], the EC50 under setting [2] is 22000 nM.

On to `Cc1c2c(c(C(=O)Nc3ccc(F)c(Cl)c3)n1C)CCCC2NC(=O)OCc1ncn(C)n1` (single isomer, unassigned) [Compound 92, (1-Methyl-1H-1,2,4-triazol-3-yl)methyl (1-((3-chloro-4-fluorophenyl)carbamoyl)-2,3-dimethyl-4,5,6,7-tetrahydro-2H-isoindol-4-yl)carbamate], for which the concentration for a half-maximal effect (EC50) under setting [1] was determined as 530 nM.

With `Cc1c2c(c(C(=O)Nc3ccc(F)c(Cl)c3)n1C)CCCC2NC(=O)OCc1ncn(C)n1` (single isomer, unassigned) [Compound 93, (1-Methyl-1H-1,2,4-triazol-3-yl)methyl (1-((3-chloro-4-fluorophenyl)carbamoyl)-2,3-dimethyl-4,5,6,7-tetrahydro-2H-isoindol-4-yl)carbamate], the EC50 under setting [2] was 950 nM.

As for `Cn1cnc(COC(=O)NC2CCCc3c2c(Cl)n(C)c3C(=O)Nc2ccc(F)c(Cl)c2)n1` (single isomer, unassigned) [Compound 94, (1-Methyl-1H-1,2,4-triazol-3-yl)methyl (3-chloro-1-((3-chloro-4-fluorophenyl)carbamoyl)-2-methyl-4,5,6,7-tetrahydro-2H-isoindol-4-yl)carbamate], the EC50 under setting [1] came out at 440 nM.

Consider `Cn1cnc(COC(=O)NC2CCc3c2c(C2CCC2)n(C)c3C(=O)Nc2ccc(F)c(Cl)c2)n1` (single isomer, unassigned) [Compound 96, (1-Methyl-1H-1,2,4-triazol-3-yl)methyl (1-((3-chloro-4-fluorophenyl)carbamoyl)-3-cyclobutyl-2-methyl-2,4,5,6-tetrahydrocyclopenta[c]pyrrol-4-yl)carbamate], for which the concentration for a half-maximal effect (EC50) under setting [2] is 420 nM.

As to `Cn1cnc(COC(=O)NC2CCc3c2c(C2CCC2)n(C)c3C(=O)Nc2ccc(F)c(Cl)c2)n1` (single isomer, unassigned) [Compound 97, (1-Methyl-1H-1,2,4-triazol-3-yl)methyl (1-((3-chloro-4-fluorophenyl)carbamoyl)-3-cyclobutyl-2-methyl-2,4,5,6-tetrahydrocyclopenta[c]pyrrol-4-yl)carbamate], the EC50 under setting [2] was at least 25000 nM.

Consider `Cn1c(C(=O)Nc2ccc(F)c(Cl)c2)c2c(c1C1CC1)C(NC(=O)OCc1nc[nH]n1)CC2` (single isomer, unassigned) [Compound 98, (1H-1,2,4-Triazol-3-yl)methyl (1-((3-chloro-4-fluorophenyl)carbamoyl)-3-cyclopropyl-2-methyl-2,4,5,6-tetrahydrocyclopenta[c]pyrrol-4-yl)carbamate], for which the EC50 under setting [2] is 15000 nM.

For the molecule `Cn1c(C(=O)Nc2ccc(F)c(Cl)c2)c2c(c1C1CC1)C(NC(=O)OCc1nc[nH]n1)CC2` (single isomer, unassigned) [Compound 99, (1H-1,2,4-Triazol-3-yl)methyl (1-((3-chloro-4-fluorophenyl)carbamoyl)-3-cyclopropyl-2-methyl-2,4,5,6-tetrahydrocyclopenta[c]pyrrol-4-yl)carbamate], under setting [2], the concentration for a half-maximal effect (EC50) was determined as 330 nM.

Regarding `C#CCOC(=O)NC1CCc2c1cn(C)c2C(=O)Nc1ccc(F)c(Cl)c1` (single isomer, unassigned) [Compound 101, Prop-2-yn-1-yl (1-((3-chloro-4-fluorophenyl)carbamoyl)-2-methyl-2,4,5,6-tetrahydrocyclopenta[c]pyrrol-4-yl)carbamate], the EC50 under setting [2] was 1600 nM.

Turning to `C#CCOC(=O)NC1CCc2c1cn(C)c2C(=O)Nc1ccc(F)c(Cl)c1` (single isomer, unassigned) [Compound 102, Prop-2-yn-1-yl (1-((3-chloro-4-fluorophenyl)carbamoyl)-2-methyl-2,4,5,6-tetrahydrocyclopenta[c]pyrrol-4-yl)carbamate], under setting [2], the EC50 came out at 20 nM.

As for `Cn1c(Cl)c2c(c1C(=O)Nc1ccc(F)c(Cl)c1)CCC2NC(=O)OCc1nc[nH]n1` (single isomer, unassigned) [Compound 104, (1H-1,2,4-Triazol-3-yl)methyl (3-chloro-1-((3-chloro-4-fluorophenyl)carbamoyl)-2-methyl-2,4,5,6-tetrahydrocyclopenta[c]pyrrol-4-yl)carbamate], the EC50 under setting [2] stood at 1900 nM.

`Cn1c(Cl)c2c(c1C(=O)Nc1ccc(F)c(Cl)c1)CCC2NC(=O)OCc1nc[nH]n1` (single isomer, unassigned) [Compound 105, (1H-1,2,4-Triazol-3-yl)methyl (3-chloro-1-((3-chloro-4-fluorophenyl)carbamoyl)-2-methyl-2,4,5,6-tetrahydrocyclopenta[c]pyrrol-4-yl)carbamate]: under setting [2], the EC50 came out at 10 nM.

For `Cn1c(Cl)c2c(c1C(=O)Nc1ccc(F)c(Cl)c1)CCC2NC(=O)OCc1cn[nH]n1` (single isomer, unassigned) [Compound 106, (2H-1,2,3-Triazol-4-yl)methyl (3-chloro-1-((3-chloro-4-fluorophenyl)carbamoyl)-2-methyl-2,4,5,6-tetrahydrocyclopenta[c]pyrrol-4-yl)carbamate], the EC50 under setting [2] was 1400 nM.

Consider `Cn1c(Cl)c2c(c1C(=O)Nc1ccc(F)c(Cl)c1)CCC2NC(=O)OCc1cn[nH]n1` (single isomer, unassigned) [Compound 107, (2H-1,2,3-Triazol-4-yl)methyl (3-chloro-1-((3-chloro-4-fluorophenyl)carbamoyl)-2-methyl-2,4,5,6-tetrahydrocyclopenta[c]pyrrol-4-yl)carbamate], for which the EC50 under setting [2] was 10 nM.

Take `Cn1cnc(COC(=O)NC2CCc3c2c(-c2ccccc2)n(C)c3C(=O)Nc2ccc(F)c(Cl)c2)n1` (single isomer, unassigned) [Compound 108, (1-Methyl-1H-1,2,4-triazol-3-yl)methyl (1-((3-chloro-4-fluorophenyl)carbamoyl)-2-methyl-3-phenyl-2,4,5,6-tetrahydrocyclopenta[c]pyrrol-4-yl)carbamate]: the EC50 under setting [3] turned out to be 5200 nM.

(Values after patent publication US11566002B2, “Substituted tetrahydrocyclopenta[C]pyrroles, substituted dihydropyrrolizines, analogues thereof, and methods using same” (priority 2018, dated 2023).)
